Assay results as given in ChEMBL document CHEMBL3124787, “Discovery of novel bis-oxazolidinone compounds as potential potent and selective antitubercular agents” (Bioorg Med Chem Lett, 2014).
Values after ≈ are worked out from the molar mass of the structure shown.

Columns and labels:
Staphylococcus aureus [1] = test: Antibacterial activity against methicillin-resistant Staphylococcus aureus ATCC 33591 assessed as growth inhibition after 18 hrs by broth microdilution method; format: functional; details: ATCC 33591, 18 h
[2] = Selectivity index, ratio of IC50 for African green monkey Vero cells to MIC for Mycobacterium tuberculosis H37RV ATCC 27294; format: toxicity, cell-based; details: read-out: Selectivity Index
Pseudomonas aeruginosa = test: Antibacterial activity against Pseudomonas aeruginosa ATCC 27853 assessed as growth inhibition after 18 hrs by broth microdilution method; format: functional; details: ATCC 27853, 18 h
[3] = test system: Mycolicibacterium smegmatis; test: Antibacterial activity against Mycobacterium smegmatis assessed as growth inhibition after 18 hrs by broth microdilution method; format: functional
Staphylococcus aureus [4] = test: Antibacterial activity against methicillin-susceptible Staphylococcus aureus ATCC 25923 assessed as growth inhibition after 18 hrs by broth microdilution method; format: functional; details: ATCC 25923, 18 h
Staphylococcus aureus [5] = test: Antibacterial activity against methicillin-resistant Staphylococcus aureus ATCC 43300 assessed as growth inhibition after 18 hrs by broth microdilution method; format: functional; details: ATCC 43300, 18 h
[6] = Aqueous solubility of the compound by HPLC analysis; format: physicochemical
Staphylococcus aureus [7] = test: Antibacterial activity against methicillin-susceptible Staphylococcus aureus ATCC 6538 assessed as growth inhibition after 18 hrs by broth microdilution method; format: functional; details: ATCC 6538, 18 h
Staphylococcus aureus [8] = test: Antibacterial activity against methicillin-susceptible Staphylococcus aureus CMCC 26003 assessed as growth inhibition after 18 hrs by broth microdilution method; format: functional; details: CMCC 26003, 18 h
Staphylococcus aureus [9] = test: Antibacterial activity against methicillin-susceptible Staphylococcus aureus ATCC 29213 assessed as growth inhibition after 18 hrs by broth microdilution method; format: functional; details: ATCC 29213, 18 h
Escherichia coli = test: Antibacterial activity against Escherichia coli ATCC 25922 assessed as growth inhibition after 18 hrs by broth microdilution method; format: functional; details: ATCC 25922, 18 h
Vero = test: Cytotoxicity against African green monkey Vero cells after 48 hrs by MTT assay; format: cell-based; details: Chlorocebus sabaeus
[10] = test system: Mycobacterium tuberculosis; test: Antitubercular activity against Mycobacterium tuberculosis H37RV ATCC 27294 assessed as growth inhibition after 3 to 11 days by microdilution method; format: functional
[11] = Lipophilicity, log P of the compound by HPLC analysis; format: physicochemical

Structure (SMILES)	MIC99 (Staphylococcus aureus [1]) [µg/mL]	selectivity ratio [2]	MIC99 (Pseudomonas aeruginosa) [µg/mL]	MIC99 [3] [µg/mL]	MIC99 (Staphylococcus aureus [4]) [µg/mL]	MIC99 (Staphylococcus aureus [5]) [µg/mL]	solubility [6] [µM]	MIC99 (Staphylococcus aureus [7]) [µg/mL]	MIC99 (Staphylococcus aureus [8]) [µg/mL]	MIC99 (Staphylococcus aureus [9]) [µg/mL]	MIC99 (Escherichia coli) [µg/mL]	IC50 (Vero) [µg/mL]	MIC [10] [µg/mL]	logP [11]
CC(=O)NC[C@H]1CN(c2ccc(OC[C@@H]3CN(c4ccccc4)C(=O)O3)c(F)c2)C(=O)O1	16 (≈ 36.1 µM)	> 40000	> 32	> 64	16 (≈ 36.1 µM)	16 (≈ 36.1 µM)	14 (≈ 6.21 µg/mL)	8 (≈ 18 µM)	16 (≈ 36.1 µM)	16 (≈ 36.1 µM)	> 32	> 5000	0.125 (≈ 0.282 µM)	1.78
CC(=O)NC[C@H]1CN(c2ccc(OC[C@H]3CN(c4ccccc4)C(=O)O3)c(F)c2)C(=O)O1	16 (≈ 36.1 µM)	254	> 32	32 (≈ 72.2 µM)	8 (≈ 18 µM)	8 (≈ 18 µM)	164 (≈ 72.7 µg/mL)	4 (≈ 9.02 µM)	4 (≈ 9.02 µM)	8 (≈ 18 µM)	> 32	63.6 (≈ 143 µM)	0.25 (≈ 0.564 µM)	1.86
